Experimental data reported in patent publication US20240000868A1, “Composition Containing Bifidobacterium Lactis and Human Milk Oligosaccharides and Application Thereof” (Inner Mongolia Yili Industrial Group Co., Ltd., priority 2020, published 2024).

System: Staphylococcus aureus ATCC25923
Test: Disc diffusion test of inhibition zone
Type: cell-based
Settings: HN019 1×10^8 CFU; gentamicin 200 μg/mL; 37° C., 18 hours
Method: Discs were prepared with sterile filter paper, the test substances HMO (10 mg/mL, 30 mg/mL) or probiotic (1×10^8 CFU) were introduced thereto, and the discs were dried overnight under sterile conditions. Staphylococcus aureus ATCC25923 (1.0×10^6 CFU/mL) was uniformly applied on the surface of an NGM agar plate, and then the discs were placed on the surface of the inoculated agar plate. Gentamicin (200 μg/mL) was used as a positive control. All plates were incubated at 37° C. for 18 hours.

In the case of Gentamicin, the “transparent inhibition zone around disc (direct antibacterial effect)” value is reported as “formation of a transparent inhibition zone”.
